Source: US7153874B2, “Imidazole derivatives” (Hoffmann-La Roche Inc., priority 2003, dated 2006)
Structures can show the parent of a compound that is named as a salt.

Experiments:
human mGlu 5a receptor = biological target: T1, human mGlu 5a receptor (Homo sapiens, UniProt P41594); test: [3H]MPEP competition binding on membranes of EBNA cells transfected with human mGlu 5a receptor; conditions: read-out: Ki (mGluR5)
T1 construct: expressed in transfected cells; host or cells: EBNA cells (transient transfection); cell membrane homogenates
T1 sequence (P41594 21-1180 isoform P41594-2 limits assumed): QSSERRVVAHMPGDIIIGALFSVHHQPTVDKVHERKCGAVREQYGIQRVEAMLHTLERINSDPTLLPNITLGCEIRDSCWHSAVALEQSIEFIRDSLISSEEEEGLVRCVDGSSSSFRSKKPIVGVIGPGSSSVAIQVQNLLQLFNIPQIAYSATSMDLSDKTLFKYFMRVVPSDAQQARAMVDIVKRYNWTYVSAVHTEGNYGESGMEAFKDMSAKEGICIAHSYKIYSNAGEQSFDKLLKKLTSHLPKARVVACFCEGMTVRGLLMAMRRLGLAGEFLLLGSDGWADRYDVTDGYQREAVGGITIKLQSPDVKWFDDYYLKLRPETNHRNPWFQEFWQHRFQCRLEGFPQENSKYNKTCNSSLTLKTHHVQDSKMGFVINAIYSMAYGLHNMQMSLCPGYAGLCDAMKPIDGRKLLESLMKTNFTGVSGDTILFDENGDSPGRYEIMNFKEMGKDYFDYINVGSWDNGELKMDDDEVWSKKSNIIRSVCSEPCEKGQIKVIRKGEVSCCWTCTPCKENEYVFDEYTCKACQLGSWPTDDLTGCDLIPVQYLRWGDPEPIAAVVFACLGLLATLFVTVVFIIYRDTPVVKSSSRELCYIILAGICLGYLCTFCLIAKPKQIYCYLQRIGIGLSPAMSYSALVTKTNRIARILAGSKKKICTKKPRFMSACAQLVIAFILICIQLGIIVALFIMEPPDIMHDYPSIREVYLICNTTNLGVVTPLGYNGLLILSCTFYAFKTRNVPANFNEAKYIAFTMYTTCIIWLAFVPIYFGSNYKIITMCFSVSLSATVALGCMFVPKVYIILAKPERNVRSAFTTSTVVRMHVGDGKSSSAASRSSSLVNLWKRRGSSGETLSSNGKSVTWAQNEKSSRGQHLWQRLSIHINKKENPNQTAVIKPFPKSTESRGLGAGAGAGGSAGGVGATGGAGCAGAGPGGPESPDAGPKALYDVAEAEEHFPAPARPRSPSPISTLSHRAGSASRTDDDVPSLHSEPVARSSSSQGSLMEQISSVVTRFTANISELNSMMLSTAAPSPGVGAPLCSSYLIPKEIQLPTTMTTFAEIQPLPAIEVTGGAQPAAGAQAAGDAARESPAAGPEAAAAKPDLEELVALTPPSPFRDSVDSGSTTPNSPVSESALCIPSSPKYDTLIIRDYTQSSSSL
Method: For binding experiments, cDNA encoding human mGlu 5a receptor was transiently transfected into EBNA cells using a procedure described by Schlaeger and Christensen [Cyto-technology 15:1–13 (1998)]. Cell membrane homogenates were stored at −80° C. until the day of assay where upon they were thawed and resuspended and polytronised in 15 mM Tris-HCl, 120 mM NaCl, 100 mM KCl, 25 mM CaCl2, 25 mM MgCl2 binding buffer at pH 7.4 to a final assay concentration of 20 μg protein/well.
Saturation isotherms were determined by addition of twelve [^3H]MPEP concentrations (0.04–100 nM) to these membranes (in a total volume of 200 μl) for 1 h at 4° C. Competition experiments were performed with a fixed concentration of [^3H]MPEP (2 nM) and IC50 values of test compounds evaluated using 11 concentrations (0.3–10,000 nM). Incubations were performed for 1 h at 4° C.
At the end of the incubation, membranes were filtered onto unifilter (96-well white microplate with bonded GF/C filter preincubated 1 h in 0.1% PEI in wash buffer, Packard BioScience, Meriden, Conn.) with a Filtermate 96 harvester (Packard BioScience) and washed 3 times with cold 50 mM Tris-HCl, pH 7.4 buffer. Nonspecific binding was measured in the presence of 10 μM MPEP. The radioactivity on the filter was counted (3 min) on a Packard Top-count microplate scintillation counter with quenching correction after addition of 45 μl of microscint 40 (Canberra Packard S. A., Zürich, Switzerland) and shaking for 20 min.
The inhibition (antagonists) curves were fitted with a four parameter logistic equation giving IC50, and Hill coefficient using an iterative non linear curve fitting software (Xcel fit).
The Ki value is defined by the following formula: Ki=IC50/[1+L/Kd] in which the IC50 values are those concentrations of the compounds tested which cause 50% inhibition of the competing radioligand ([^3H]MPEP). L is the concentration of radioligand used in the binding experiment and the Kd value of the radioligand is empirically determined for each batch of membranes prepared.

Row | SMILES | melting point | Ki (human mGlu 5a receptor)
1 | COc1cc(-n2cc(C#Cc3ccnc(C)c3)nc2C)ccn1 (as salt: HCl) [Compound 69, 2-Methoxy-4-[2-methyl-4-(2-methyl-pyridin-4-ylethynyl)-imidazol-1-yl]-pyridine] | 145 to 147 °C | 
2 | Cc1cc(C#Cc2cn(-c3nccc(Cl)n3)c(C)n2)ccn1 [Compound 29, 4-chloro-2-[2-methyl-4-(2-methyl-pyridin-4-ylethynyl)-imidazol-1-yl]-pyrimidine] |  | 25 nM
3 | Cc1cc(C#Cc2cn(-c3ccc(F)c(F)c3)c(C)n2)ccn1 [Compound 4, 4-[1-(3,4-difluoro-phenyl)-2-methyl-1H-imidazol-4-ylethynyl]-2-methyl-pyridine] |  | 25 nM
4 | Cc1cc(C#Cc2cn(-c3ncccn3)c(C)n2)ccn1 [Compound 8, 2-[2-Methyl-4-(2-methyl-pyridin-4-ylethynyl)-imidazol-1-yl]-pyrimidine] | 164 to 165 °C | 74 nM
5 | Cc1cc(C#Cc2nc(C)n(-c3ccc(F)cc3)c2C=O)ccn1 [Compound 89, 3-(4-Fluoro-phenyl)-2-methyl-5-(2-methyl-pyridin-4-ylethynyl)-3H-imidazole-4-carbaldehyde] |  | 65 nM
6 | Cc1cc(C#Cc2cn(-c3ccc4c(ccn4C)c3)c(C)n2)ccn1 [Compound 18, 1-methyl-5-[2-methyl-4-(2-methyl-pyridin-4-ylethynyl)-imidazol-1-yl]-1H-indole] |  | 45 nM
7 | Cc1cc(C#Cc2cn(-c3cncc(C4CC4)n3)c(C)n2)ccn1 [Compound 56, 2-cyclopropyl-6-[2-methyl-4-(2-methyl-pyridin-4-ylethynyl)-imidazol-1-yl]-pyrazine] |  | 27 nM
8 | Cc1cc(C#Cc2nc(C)n(-c3ccc(F)cc3)c2C)ccn1 [Compound 88, 4-[1-(4-Fluoro-phenyl)-2,5-dimethyl-1H-imidazol-4-ylethynyl]-2-methyl-pyridine] |  | 33 nM
9 | Cc1cc(C#Cc2cn(-c3ccc(F)cc3)c(C)n2)ccn1 [Compound 1, 4-[1-(4-Fluoro-phenyl)-2-methyl-1H-imidazol-4-ylethynyl]-2-methyl-pyridine] | 151 °C | 

The next lines start with the values.

Row | melting point | Ki (human mGlu 5a receptor) | SMILES
10 |  | 16 nM | Cc1cc(C#Cc2cn(-c3cccc(C4CC4)n3)c(C)n2)ccn1 [Compound 57, 2-cyclopropyl-6-[2-methyl-4-(2-methyl-pyridin-4-ylethynyl)-imidazol-1-yl]-pyridine]
11 |  | 17 nM | Cc1cc(C#Cc2cn(-c3nccc(C(F)(F)F)n3)c(C)n2)ccn1 [Compound 21, 2-[2-methyl-4-(2-methyl-pyridin-4-ylethynyl)-imidazol-1-yl]-4-trifluoromethyl-pyrimidine]
12 |  | 18 nM | COc1ccnc(-n2cc(C#Cc3ccnc(C)c3)nc2C)n1 [Compound 22, 4-methoxy-2-[2-methyl-4-(2-methyl-pyridin-4-ylethynyl)-imidazol-1-yl]-pyrimidine]
13 |  | 18 nM | COc1cccc(-n2cc(C#Cc3ccnc(C)c3)nc2C)n1 [Compound 68, 2-Methoxy-6-[2-methyl-4-(2-methyl-pyridin-4-ylethynyl)-imidazol-1-yl]-pyridine]
14 |  | 19 nM | Cc1cc(C#Cc2cn(-c3cccc(N(C)C)n3)c(C)n2)ccn1 [Compound 71, dimethyl-{6-[2-methyl-4-(2-methyl-pyridin-4-ylethynyl)-imidazol-1-yl]-pyridin-2-yl}-amine]
15 |  | 18 nM | Cc1cc(C#Cc2cn(-c3ccc(Cl)c(Cl)c3)c(C)n2)ccn1 [Compound 2, 4-[1-(3,4-Dichloro-phenyl)-2-methyl-1H-imidazol-4-ylethynyl]-2-methyl-pyridine hydrochloride]
16 |  | 24 nM | Cc1cc(C#Cc2cn(-c3cccc(C(F)(F)F)c3)c(C)n2)ccn1 [Compound 7, 2-methyl-4-[2-methyl-1-(3-trifluoromethyl-phenyl)-1H-imidazol-4-ylethynyl]-pyridine]
